Results: patent US8247349B2, “Enhanced abscisic acid analog and fertilizer performance” (Valent BioSciences Corporation, priority 2007, dated 2012)
Where two headings read alike, the source gives them in different places.

Tests used:
tomato plant leaves [1] = test: Phytotoxicity study: number of injured leaves after foliar application; conditions: for Number of injured leaves: 25 ppm ABA analog alone, one foliar application; for Phytotoxicity (in words): 25 ppm alone, 10-day experimental period
tomato plant leaves [2] = conditions: in vivo
[3] = system: tomato leaf transpiration; test: Tomato leaf transpiration inhibition after foliar application (LI-1600 Steady State Porometer); assay type: in vivo, Tomato (variety: Rutgers)

C#CC1(C)CC(=O)C=C(C)C1(O)C=CC(C)=CC(=O)O (centres unmarked) [PBI-524, 8′ acetylene-ABA, acid]
Number of injured leaves (tomato plant leaves [1]; 5 days after treatment): 0.0
Number of injured leaves (tomato plant leaves [1]; 10 days after treatment): 0.0
Phytotoxicity (in words) (tomato plant leaves [1]): did not show any phytotoxicity

N.N.O=S(=O)(O)O [(NH4)2SO4, ammonium sulfate]
Phytotoxicity (in words) (tomato plant leaves [2]): showed phytotoxicity

NC(N)=O [Urea, urea]
Transpiration rate (% of control) ([3]; 1 mM alone, 1 day after treatment): 103 % of control
Transpiration rate (% of control) ([3]; 1 mM alone, 2 days after treatment): 98 % of control
Transpiration rate (% of control) ([3]; 1 mM alone, 3 days after treatment): 98 % of control
Transpiration rate (% of control) ([3]; 1 mM alone, 4 days after treatment): 100 % of control
Transpiration rate (% of control) ([3]; 10 mM alone, 1 day after treatment): 101 % of control
Transpiration rate (% of control) ([3]; 10 mM alone, 2 days after treatment): 103 % of control
Transpiration rate (% of control) ([3]; 10 mM alone, 3 days after treatment): 106 % of control
Transpiration rate (% of control) ([3]; 10 mM alone, 4 days after treatment): 101 % of control
Transpiration rate (% of control) ([3]; 100 mM alone, 1 day after treatment): 102 % of control
Transpiration rate (% of control) ([3]; 100 mM alone, 2 days after treatment): 102 % of control
Transpiration rate (% of control) ([3]; 100 mM alone, 3 days after treatment): 107 % of control
Transpiration rate (% of control) ([3]; 100 mM alone, 4 days after treatment): 102 % of control
Effect on tomato leaf transpiration (in words) ([3]; 1, 10 or 100 mM alone, 4-day experimental period): Neither urea nor ammonium nitrate at any of three tested concentrations significantly reduced tomato leaf transpiration

C#CC1(C)CC(=O)C=C(C)C1(O)/C=C/C(C)=C\C(=O)OC (centres unmarked) [PBI-429, 8′ acetylene-ABA methyl ester]
Transpiration rate (% of control) ([3]; 25 ppm alone, 1 day after treatment): 60 % of control
Transpiration rate (% of control) ([3]; 25 ppm alone, 2 days after treatment): 42 % of control
Transpiration rate (% of control) ([3]; 25 ppm alone, 3 days after treatment): 64 % of control
Transpiration rate (% of control) ([3]; 25 ppm alone, 4 days after treatment): 63 % of control
Transpiration rate (% of control) ([3]; 25 ppm alone, 7 days after treatment): 87 % of control
Transpiration rate (% of control), Average ([3]; 25 ppm alone, average over days 1-7): 63 % of control
Number of injured leaves (tomato plant leaves [1]; 5 days after treatment): 0.0
Number of injured leaves (tomato plant leaves [1]; 10 days after treatment): 0.0
Phytotoxicity (in words) (tomato plant leaves [1]): did not show any phytotoxicity
